How the values were obtained:
[1] = test system: HeLa (human epithelial cervical cancer cell line) cells; assay: anti-proliferation assay, MTT, HeLa cells; assay type: cell-based
Experimental: (§1) In this section, the anti-proliferation activity of the synthesized compounds 3a–3t was evaluated. Herein, HeLa (human epithelial cervical cancer cell line), HepG2 (human hepatoellular carcinoma cell line) and L02 (human normal hepatocyte line) cells were used. According to the affection on L02 cells, most of the tested compounds were low-toxic. […] Basically, many of the compounds in this series could inhibit the growth of HeLa and HepG2 cells effectively. The anti-proliferation inhibitory activity and the enzymatic inhibition potency indicated the consistent tendencies; the SAR of the observed anti-proliferation activity was also similar to that of the enzymatic inhibition, especially that of PI3Kγ inhibition; thus, the cellular inhibition might be caused by the effect on PI3K. […] Thus, HepG2 cells were selected to conduct further investigations at the protein level.
(§2) In this section, the cells included HeLa (human epithelial cervical cancer cell line), HepG2 (human hepatocellular cancer cell line) and L02 (human normal hepatocyte line) to evaluate the anti-proliferation activity of the synthesized compounds. The cells were cultured in Dulbecco’s modified eagle medium (DMEM, Hyclone) with the addition of 10% fetal bovine serum (FBS, BI), 2 mmol/L L-glutamine, 100 units/mL penicillin-streptomycin (Sigma-Aldrich, Saint Louis, MO, USA), […] (Hyclone, Logan, UT, USA). The environment was 5% CO2 contained atmosphere at 37 °C. The tests of anti-proliferative activity were conducted under a standard method with the typical dye 3-(4,5-dimethylthiazol-2-yl)-2,5-diphenyltetrazolium bromide (MTT) in triplicate. The LX300 Epson Diagnostic micro-plate reader (Nagano, Japan) was used to record the absorbance at 570 nm (OD570).

[2] = test system: PI3K-mediated Akt phosphorylation in HepG2 cells; assay: Western blot of Akt and p-Akt in HepG2 cells; assay type: cell-based, human; conditions: 24 h, 0, 0.25, 0.50, 1.00 μM, with increasing concentration
Experimental: For the evaluation of PI3Kγ activity, the downstream signal of PI3Kγ should be checked. Commonly, in the PI3K-Akt-mTOR pathway, the activation of PI3K mediated the phosphorylation of Akt and then triggered the following biological events. Herein, Western blot was conducted to visualize the expression levels of Akt and p-Akt (phosphorylated Akt) in HepG2 cells after incubation with various concentrations of the top hit 3s (Figure 2). GAPDH was used as the internal reference to guarantee cell status. […] This meant that compound 3s has the potential to cause dose-dependent blocking on the PI3K-mediated Akt phosphorylation.
According to the results of the anti-proliferation assay, HepG2 cells were chosen to be incubated with the compound 3s for 24 h. The cells were then trypsinized and collected. Afterwards, the extracting of the total proteins was conducted with a 1 × RIPA lysis buffer (1% NP-40, 50 mM Tris-HCl, 150 mM NaCl, 0.25% deoxycholic acid, 1 mM EDTA containing protease inhibitors PMSF, pH 7.4,) (Amresco, Solon, OH, USA). […]
Figure 2 (A) The expression levels of Akt, phosphorylated Akt (p-Akt) and GAPDH in HepG2 cells incubated with various concentrations of compound 3s (0, 0.25, 0.50, 1.00 μM); (B) Quantitation analysis of the p-Akt level. Data were expressed as Mean ± SD (n = 3). * p < 0.05, ** p < 0.01 and *** p < 0.005 vs. the control.

[3] = cytotoxicity, MTT, L02 cells; assay type: cell-based; conditions: human, L02 cells (human normal hepatocyte line)
Experimental: as §1, §2

[4] = molecular target: T1, PI3Kγ (Homo sapiens, UniProt P48736); assay: competitive fluorescence polarization kinase activity assay, PI3Kγ; assay type: biochemical
T1 construct: purchased Perkin–Elmer
T1 sequence (P48736 whole entry, species assumed): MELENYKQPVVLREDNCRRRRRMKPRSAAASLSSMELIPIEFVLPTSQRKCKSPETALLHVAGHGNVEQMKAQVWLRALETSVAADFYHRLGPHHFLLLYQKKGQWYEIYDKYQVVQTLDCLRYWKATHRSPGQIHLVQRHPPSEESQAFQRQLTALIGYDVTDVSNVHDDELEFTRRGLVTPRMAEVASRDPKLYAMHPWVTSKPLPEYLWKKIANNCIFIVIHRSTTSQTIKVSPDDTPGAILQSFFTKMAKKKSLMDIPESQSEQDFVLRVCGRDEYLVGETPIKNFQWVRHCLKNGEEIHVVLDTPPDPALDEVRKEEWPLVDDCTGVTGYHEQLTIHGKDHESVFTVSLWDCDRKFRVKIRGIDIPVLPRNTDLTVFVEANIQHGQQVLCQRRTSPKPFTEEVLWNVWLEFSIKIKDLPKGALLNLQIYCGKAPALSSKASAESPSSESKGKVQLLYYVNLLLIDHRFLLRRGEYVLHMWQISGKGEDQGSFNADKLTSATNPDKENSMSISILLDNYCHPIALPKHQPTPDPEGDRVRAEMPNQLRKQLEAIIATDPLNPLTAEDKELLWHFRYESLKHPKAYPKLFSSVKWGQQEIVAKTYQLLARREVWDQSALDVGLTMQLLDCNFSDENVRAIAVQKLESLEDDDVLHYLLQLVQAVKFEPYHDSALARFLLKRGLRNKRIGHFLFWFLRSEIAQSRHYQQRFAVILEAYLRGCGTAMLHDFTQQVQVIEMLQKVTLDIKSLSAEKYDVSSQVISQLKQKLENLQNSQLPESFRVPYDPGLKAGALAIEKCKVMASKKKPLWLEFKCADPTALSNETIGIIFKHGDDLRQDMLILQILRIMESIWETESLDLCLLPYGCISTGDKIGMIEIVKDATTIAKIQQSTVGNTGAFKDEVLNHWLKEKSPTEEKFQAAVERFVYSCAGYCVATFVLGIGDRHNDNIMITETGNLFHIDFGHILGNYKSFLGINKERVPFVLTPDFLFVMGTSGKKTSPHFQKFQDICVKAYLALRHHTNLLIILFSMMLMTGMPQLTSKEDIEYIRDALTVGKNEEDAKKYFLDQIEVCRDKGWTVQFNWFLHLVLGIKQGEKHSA
From the text: (§3) Initially, we directly tested the inhibition potency of the synthesized compounds on PI3K by using competitive fluorescence polarization kinase kits, as mentioned in previous investigations. […] According to the significance and research maturity of the isoforms as referenced, the PI3Kα and PI3Kγ isoforms were preliminarily included here.
(§4) The competitive fluorescence polarization kinase activity assay was used to test the inhibition potency on PI3K, as mentioned in previous investigations. In general, following the instruction of the Kit (Perkin–Elmer, Waltham, MA, USA), the 10 μL scale of PI3K activity reaction was conducted with the substrate diC8-PI(4,5)P2 in a solution containing 2.5 mM MgCl2, 5 mM HEPES, […] and 10 mM DTT at pH 7.0. Into the 10 μL reaction wells with 50 ng enzyme and […], different concentrations of the tested compounds were added, respectively. The mixture was incubated at room temperature for 3 h, and the reactions were then quenched. Afterwards, the phosphoinositide binding protein and the fluorescent dye-labeled phosphoinositide tracer were added in sequence. In the dark environment in 384-well black nonbinding plates (Corning, Corning, NY, USA), the further incubation lasted for 1 h. With appropriate filters, the polarization values of the corresponding dye were recorded to calculate the enzymatic activity of PI3K in this reacting procedure. This assay was universal for evaluating the activity of different PI3K isoforms.

[5] = test system: HepG2 (human hepatocellular cancer cell line) cells; assay: anti-proliferation assay, MTT, HepG2 cells; assay type: cell-based; conditions: read-out: GI50 HepG2γ
Experimental: as §1, §2

[6] = molecular target: T2, PI3Kα (Homo sapiens, UniProt P42336); assay: competitive fluorescence polarization kinase activity assay, PI3Kα; assay type: biochemical; conditions: fluorescence polarization kinase kit
T2 construct: purchased Perkin–Elmer
T2 sequence (P42336 whole entry, species assumed): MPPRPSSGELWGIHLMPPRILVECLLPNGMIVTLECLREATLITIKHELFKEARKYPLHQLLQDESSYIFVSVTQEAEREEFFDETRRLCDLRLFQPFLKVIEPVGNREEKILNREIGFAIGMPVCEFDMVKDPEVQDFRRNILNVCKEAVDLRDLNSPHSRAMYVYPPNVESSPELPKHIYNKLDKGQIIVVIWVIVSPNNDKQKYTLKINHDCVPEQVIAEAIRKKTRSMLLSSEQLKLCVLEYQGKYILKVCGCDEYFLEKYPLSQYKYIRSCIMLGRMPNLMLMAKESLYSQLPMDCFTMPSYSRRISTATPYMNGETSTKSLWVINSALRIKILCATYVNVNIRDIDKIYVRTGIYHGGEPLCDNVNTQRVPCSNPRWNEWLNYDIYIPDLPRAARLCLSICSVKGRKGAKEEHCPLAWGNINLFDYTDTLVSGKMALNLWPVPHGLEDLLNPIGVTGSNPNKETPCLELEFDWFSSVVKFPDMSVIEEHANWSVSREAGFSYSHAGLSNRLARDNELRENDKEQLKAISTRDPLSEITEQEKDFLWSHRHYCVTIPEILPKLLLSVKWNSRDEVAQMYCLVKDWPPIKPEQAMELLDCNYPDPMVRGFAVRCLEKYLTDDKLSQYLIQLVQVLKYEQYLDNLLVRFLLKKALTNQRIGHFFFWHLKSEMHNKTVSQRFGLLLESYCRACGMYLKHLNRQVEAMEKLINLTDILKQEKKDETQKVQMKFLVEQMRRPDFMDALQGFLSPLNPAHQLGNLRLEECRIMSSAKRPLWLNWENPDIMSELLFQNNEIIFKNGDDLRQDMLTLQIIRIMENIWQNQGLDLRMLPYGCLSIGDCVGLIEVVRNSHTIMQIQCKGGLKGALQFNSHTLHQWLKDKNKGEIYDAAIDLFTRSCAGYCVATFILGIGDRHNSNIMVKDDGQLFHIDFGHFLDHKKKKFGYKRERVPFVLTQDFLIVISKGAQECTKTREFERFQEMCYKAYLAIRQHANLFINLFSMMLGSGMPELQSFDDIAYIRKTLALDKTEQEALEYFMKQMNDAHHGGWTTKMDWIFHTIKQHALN
T2 sequence (P27986 whole entry partner, species assumed): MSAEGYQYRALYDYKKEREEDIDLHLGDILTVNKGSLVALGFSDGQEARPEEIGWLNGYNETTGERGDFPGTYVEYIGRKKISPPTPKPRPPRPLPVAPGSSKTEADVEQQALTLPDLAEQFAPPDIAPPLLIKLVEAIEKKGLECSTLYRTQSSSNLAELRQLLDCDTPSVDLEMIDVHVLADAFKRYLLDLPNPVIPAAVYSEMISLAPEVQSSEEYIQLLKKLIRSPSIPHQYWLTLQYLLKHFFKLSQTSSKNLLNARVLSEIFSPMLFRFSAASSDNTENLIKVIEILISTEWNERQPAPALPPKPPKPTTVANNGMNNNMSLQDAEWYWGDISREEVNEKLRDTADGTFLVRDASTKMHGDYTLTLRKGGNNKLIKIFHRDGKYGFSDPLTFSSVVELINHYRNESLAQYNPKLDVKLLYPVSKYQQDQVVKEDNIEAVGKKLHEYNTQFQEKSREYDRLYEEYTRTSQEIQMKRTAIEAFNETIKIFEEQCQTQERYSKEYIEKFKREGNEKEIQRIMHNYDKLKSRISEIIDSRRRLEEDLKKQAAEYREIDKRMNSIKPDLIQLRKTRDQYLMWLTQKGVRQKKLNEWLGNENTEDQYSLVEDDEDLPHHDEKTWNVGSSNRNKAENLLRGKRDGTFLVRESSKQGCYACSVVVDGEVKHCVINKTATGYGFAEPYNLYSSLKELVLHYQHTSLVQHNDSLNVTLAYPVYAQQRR
From the text: as §3, §4

[7] = test system: BHK cells; design: method as in doi:10.1134/S1068162020030061; conditions: cited from earlier work
[8] = test system: HCT-116 cells; design: method as in doi:10.1134/S1068162020030061; conditions: cited from earlier work
[9] = test system: CACO-2 cells; design: method as in doi:10.1134/S1068162020030061; conditions: cited from earlier work

## COc1ccc(C(=O)N2N=C(c3ccc4c(c3)OCO4)CC2c2cccs2)cc1OC (stereo not drawn) [3s, (3-(Benzo[d][1,3]dioxol-5-yl)-5-(thiophen-2-yl)-4,5-dihydro-1H-pyrazol-1-yl)(3,4-dimethoxyphenyl)methanone]
[1]
  GI50: 13.7 ± 1.1 µM
[2]
  Akt level: almost remained unchanged
  p-Akt level: obvious decrease
other
  melting point: 138 to 140 °C
[3]
  CC50: 181 ± 9 µM
[4]; fluorescence polarization kinase kit
  IC50: 66 ± 5 nM
[4]; ratio of the IC50 values for PI3Kα and PI3Kγ
  selectivity index: 645
[5]
  GI50: 12.9 ± 1.3 µM
[6]
  IC50: 42.6 ± 2.9 µM

## CCOC(=O)c1sc(N2N=C(c3cccs3)CC2c2ccccc2)nc1C (stereo not drawn) [ethyl-4-methyl-2-(5-phenyl-3-(thiophen-2-yl)-4,5-dihydropyrazol-1-yl)thiazole-5-carboxylate]
[7]
  cytotoxicity: no cytotoxicity
[8]
  anti-tumor activity: potent anti-tumor activity
[9]
  anti-tumor activity: potent anti-tumor activity
